The values below come from paper PMC8348901, “Novel N-Substituted 3-Aryl-4-(diethoxyphosphoryl)azetidin-2-ones as Antibiotic Enhancers and Antiviral Agents in Search for a Successful Treatment of Complex Infections” (International Journal of Molecular Sciences, 2021).

pEC50, pIC50: −log10 of the molar value. Like-named read-outs stand apart in the source and are kept apart here.

Series [1] relates to influenza A virus H1N1 subtype. Description: Antiviral assay, influenza A virus H1N1 subtype in MDCK cells. The format is cell-based, influenza A virus H1N1 (A/PR/8).
The next series deals with MRSA HEMSA 5. Description: Oxacillin MIC reduction (adjuvant) microdilution assay. The format is cell-based, Staphylococcus aureus. To be noted: MIC(OXA)/MIC(OXA+Cpd), compound 0.5 mM, adjuvant activity if A ≥ 4. As for the experimental part:
(§1) Since the lack of direct antibacterial activity of the obtained azetidinones was observed, all isomers trans and cis were investigated on their “adjuvant” properties, i.e., an ability to enhance the effectiveness of antibiotics against S. aureus strains. Thus, the compounds were tested in combination with the known β-lactam antibiotic, oxacillin, in the microdilution assays. The ability of the tested azetidinones to reduce minimum inhibitory concentration (MIC) of oxacillin against both, the referenced and the resistant S. aureus strains, was assessed.
(§2) The in-vitro antibacterial property and the capacity of tested compounds to increase the efficacy of antibiotics were evaluated in two Staphylococcus aureus strains, i.e., the reference clonal complex 5 (CC5) methicillin-susceptible (MSSA) strain ATCC 25923, and the methicillin-resistant (MRSA) extensively drug-resistant (XDR) clinical isolate HEMSA-5 [46].
(§3) In order to assess the increase of antibiotic efficacy, the assays were conducted by determining if/to what extent the investigated compounds reduce MICs of oxacillin by means of a serial dilution broth microplate method, in accordance with the CLSI requirements. The concentrations of compounds used in the MICs reduction assay were no greater than 1/4 of their respective MICs to ensure that cell viability was not affected by the intrinsic antibacterial activity of the molecules. Serial two-fold dilutions of oxacillin (Sigma-Aldrich; St. Louis, MI, USA, cat. no. 28221), were prepared in […] of the Mueller–Hinton broth (Merck; Darmstadt, Germany, cat. no. 1102930500). Suitable concentrations of the compounds (total volume […]) were then added. Bacterial suspensions were diluted to OD ¼ 0.5. The resulting suspensions were then diluted 1:100 and added in the volume of […] into the oxacillin serial dilutions with the compounds. The results were read after 20-h incubation at 37 °C.
(§4) The ability of compounds to improve antibiotic efficacy was expressed as the activity gain [A] parameter calculated according to the formula given in Figure 10.
(§5) Figure 10 Activity gain. MICAnt corresponds to the MIC of oxacillin in the absence of a compound tested and MICAnt + Comp refers to the MIC of oxacillin paired with a compound tested.
A general note: Broth dilution looks for growth in wells or tubes with falling amounts of substance.

In the next series the test system is S. aureus ATCC 25923. The series is described as above. To be noted: MIC(OXA)/MIC(OXA+Cpd), compound 0.5 mM, adjuvant activity if A ≥ 4. The format is cell-based, Staphylococcus aureus. As for the experimental part:
as §1, §2, §3, §4, §5

For series [2], the system named is DND-41 (acute lymphoblastic leukemia). Description: Cytostatic activity (cell proliferation). The format is cell-based. Conditions: DND41. As for the experimental part:
(§6) The 50% cytostatic inhibitory concentration (IC50) causing a 50% decrease in cell proliferation was determined for all obtained compounds toward 9 cancerous cell lines, i.e.,: Capan-1 (pancreatic adenocarcinoma), Hap1 (chronic myeloid leukemia), HCT-116 (colorectal carcinoma), NCI-H460 (lung carcinoma), DND-41 (acute lymphoblastic leukemia), HL-60 (acute myeloid leukemia), K-562 (chronic myeloid leukemia), MM.1S (multiple myeloma), Z-138 non-Hodgkin lymphoma), as well as normal retina (non-cancerous) cells (hTERT RPE-1). Docetaxel, etoposide and stauroporine were used as the reference compounds.
(§7) All assays were performed in 96-well microtiter plates. To each well was added (5–7.5) × 10^4 tumor cells and a given amount of the tested compound. The cells were allowed to proliferate at 37 °C in a humidified, CO2-controlled atmosphere. At the end of the incubation period, the cells were counted in a Coulter counter. The IC50 (50% inhibitory concentration) was defined as the concentration of the compound that inhibited cell proliferation by 50%.

In series [3] the test system is HCT-116 (colorectal carcinoma). In words: Cytostatic activity (cell proliferation). Type of series: cell-based. Conditions: Homo sapiens, HCT-116. As for the experimental part: as §6, §7
The subject of series [4] is Hap1 (chronic myeloid leukemia). Description: Cytostatic activity (cell proliferation). The format is cell-based. To be noted: Homo sapiens, HAP1. As for the experimental part: as §6, §7
The subject of series [5] is NCI-H460 (lung carcinoma). In words: Cytostatic activity (cell proliferation). The format is cell-based. To be noted: Homo sapiens, NCI-H460. As for the experimental part:
as §6, §7

The subject of series [6] is hTERT RPE-1 normal retina (non-cancerous) cells. Description: Cytostatic activity (cell proliferation). Type of series: cell-based. To be noted: hTERT-RPE1. Here is the method: as §6, §7
Series [7] relates to Capan-1 (pancreatic adenocarcinoma). Description: Cytostatic activity (cell proliferation). The format is cell-based. Conditions: Homo sapiens, CAPAN-1. As for the experimental part:
The 50% cytostatic inhibitory concentration (IC50) causing a 50% decrease in cell proliferation was determined for all obtained compounds toward 9 cancerous cell lines, i.e.,: Capan-1 (pancreatic adenocarcinoma), Hap1 (chronic myeloid leukemia), HCT-116 (colorectal carcinoma), NCI-H460 (lung carcinoma), DND-41 (acute lymphoblastic leukemia), HL-60 (acute myeloid leukemia), K-562 (chronic myeloid leukemia), MM.1S (multiple myeloma), Z-138 non-Hodgkin lymphoma), as well as normal retina (non-cancerous) cells (hTERT RPE-1).
All assays were performed in 96-well microtiter plates. To each well was added (5–7.5) × 10^4 tumor cells and a given amount of the tested compound. The cells were allowed to proliferate at 37 °C in a humidified, CO2-controlled atmosphere. At the end of the incubation period, the cells were counted in a Coulter counter.

The test system of series [8] is Madin Darby canine kidney cells (MDCK). To be noted: microscopically detectable alteration of cell morphology.
Another series can be described thus: in vitro. To be noted: dog.
A further series has as its system human coronavirus (229E). In words: microbe, parasite or virus in culture. Type of series: cell-based.
Series [9] concerns cytomegalovirus AD-169 strain. Description: Antiviral CPE reduction assay, cytomegalovirus AD-169 strain in HEL cells. Type of series: cell-based, human cytomegalovirus (HCMV). Conditions: Human betaherpesvirus 5, AD169.
Series [10] concerns human embryonic lung (HEL) cells. To be noted: uninfected host cells of the coronavirus/cytomegalovirus assays.

On to `CCOP(=O)(OCC)[C@@H]1[C@H](c2ccc(F)c(C)c2)C(=O)N1Cc1ccccc1` (relative stereo) [cis-11f, cis-N-benzyl-3-(4-fluoro-3-methylphenyl)-4-(diethoxyphosphoryl)azetidin-2-one], for which the pEC50 (as a rule, the negative decadic logarithm of the EC50, by convention in mol/L) in [1] (H1N1, MDCK cells, visual CPE score, read-out: EC50 by visual CPE score, influenza A virus H1N1) is 4.92; in [1] (H1N1, MDCK, read-out: EC50 by TMS score, influenza A virus H1N1), 5.08. In addition, the results for the “Activity Gain [A]” value in the series with MRSA HEMSA 5 and with S. aureus ATCC 25923 were 1–2 and under 0.5, respectively. The pIC50 (usually −log10 of the IC50, conventionally taken in molar units) is under 4.00 in [2]; under 4.00 in series [3]; under 4.00 in [4]; 4.27 in series [5]; under 4.00 in series [6]; 4.42 in [7]. For the same compound, in series [8], the “MCC (minimum cytotoxic concentration)” value is listed as over 100 µM. The CC50 in “in vitro” stood at 39.9 µM.
Take `CCOP(=O)(OCC)[C@H]1[C@H](c2ccc(F)c(C)c2)C(=O)N1Cc1ccccc1` (relative stereo) [trans-11f, trans-N-benzyl-3-(4-fluoro-3-methylphenyl)-4-(diethoxyphosphoryl)azetidin-2-one]: in the series with human coronavirus (229E), the “Activity against human coronavirus (229E) relative to ribavirin” value is about 2.5 fold. For the same compound, the pEC50 was 4.35 in the series with human coronavirus (229E) (Human coronavirus 229E, HEL cells, reduction of virus-induced cytopathogenicity by 50%) and 4.26 in [9]. Also, the “Activity Gain [A]” value is listed as 16 with MRSA HEMSA 5 and 0.5 in the series on S. aureus ATCC 25923. In addition, the negative logarithm of the IC50 (pIC50) in series [2] was 4.18; in series [3], 4.45; in series [4], 4.33; in series [5], 4.43; in series [6] it was 4.47; in series [7] it was 4.46. Also, the “Effect on normal cell morphology” value in series [10] is given as “did not affect normal cell morphology”.
